Tests used:
[1] = system: HT-29 colon carcinoma cell line; assay: MTT metabolic activity (cytotoxicity) assay, HT-29; type: cell-based; conditions: 72 h incubation
Experimental: In order to determine the antitumor activity of the platinum complexes, in vitro cytotoxicity tests were performed. Compounds 1–4 were tested with cisplatin as a reference on the breast cancer cell line MCF-7 and the colon carcinoma cell line HT-29. Complexes 1, 4, and 5, as well as the ligand (but-3-en-1-yl 2-acetoxybenzoate, 6) were additionally evaluated on MDA-MB-231 cells and A2780cis cells, also using cisplatin as a reference. The metabolic activity as an indicator of cytotoxicity was determined by a classical 3-(4,5-dimethylthiazol-2-yl)-2,5-diphenyltetrazoliumbromid (MTT) assay.
The cell lines A2780cis and MDA-MB-231 were cultivated in RPMI 1640 without phenol red (PAN Biotech, Aidenbach, Germany), supplemented with L-glutamine (2 mM), 100 μg/mL penicillin, 100 μg/mL streptomycin, and FCS (10%) (all from Invitrogen Corporation, Gibco, Paisley, Scotland) at 37 °C in a 5% CO2/95% air atmosphere, and passaged twice per week. To maintain resistance, A2780cis cells were incubated every second week with cisplatin (1 μM). The cell lines MCF-7 and HT-29 were grown in DMEM without phenol red (PAN Biotech, Aidenbach, Germany), containing L-glutamine, 100 μg/mL penicillin, 100 μg/mL streptomycin, sodium pyruvate ([…]) (PAN Biotech), and FCS (10%) under the same conditions as the other cell lines.
The exponentially growing cell lines were seeded at a density of 2000 cells/well for MCF-7 cells, 4000 cells/well for HT-29 cells and MDA-MB-231 cells, and 8000 cells/well for A2780cis cells, respectively, into clear flat-bottom 96-well plates in triplicates. Following 24 h of incubation for adherence at 37 °C in a humidified atmosphere (5% CO2/95% air), the compounds were added to reach the desired concentrations between 10 and 100 μM, respectively. All stock solutions were prepared in dimethylformamide at a concentration of 100 mM and were then diluted with the respective cell-culture medium to the appropriate concentrations. After another 72 h of incubation, the cellular metabolic activity was measured by employing a MTT assay. Hereby, the yellow tetrazolium salt is converted to a purple formazan salt by the functioning mitochondria. These purple crystals are then dissolved in DMSO and can be quantified via absorption measurements at 570 and 420 nm. The optical density of the particular medium was subtracted in order to exclude the unspecific staining caused by the FCS-containing medium. The values were calculated with Excel 2019 (Microsoft, Redmond, WA, USA) using nonlinear regression and the decal logarithm of the inhibitor versus variable slope equation, while the top constraint was set to 100%.

human recombinant COX-2 = target: T1, human recombinant COX-2 (Homo sapiens, UniProt P35354); assay: COX-2 inhibition, enzyme immunoassay (COX Inhibitor Screening Assay); type: biochemical; conditions: 2 min incubation
T1 construct: purchased Cayman Chemicals
T1 sequence (P35354 18-604): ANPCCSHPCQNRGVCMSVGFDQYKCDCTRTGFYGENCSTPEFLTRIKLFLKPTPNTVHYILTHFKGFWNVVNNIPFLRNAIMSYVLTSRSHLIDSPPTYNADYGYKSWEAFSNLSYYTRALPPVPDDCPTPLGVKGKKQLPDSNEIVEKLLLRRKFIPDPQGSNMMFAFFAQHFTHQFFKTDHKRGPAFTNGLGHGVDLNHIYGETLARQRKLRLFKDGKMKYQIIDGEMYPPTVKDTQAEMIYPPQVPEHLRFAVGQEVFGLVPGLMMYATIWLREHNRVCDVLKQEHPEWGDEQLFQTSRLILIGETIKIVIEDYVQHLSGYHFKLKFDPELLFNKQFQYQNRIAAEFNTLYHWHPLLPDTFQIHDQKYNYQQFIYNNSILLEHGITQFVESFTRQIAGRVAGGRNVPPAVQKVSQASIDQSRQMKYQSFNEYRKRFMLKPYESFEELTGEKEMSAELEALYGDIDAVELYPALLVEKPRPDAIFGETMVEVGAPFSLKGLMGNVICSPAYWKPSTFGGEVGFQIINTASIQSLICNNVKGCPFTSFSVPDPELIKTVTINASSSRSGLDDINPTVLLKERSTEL
Experimental: Metal complexes containing an ASA moiety have been reported as inhibitors for COX-1/-2 previously.[4],[14],[40]−[44] […] Hereby, the isolated enzymes were treated with final concentrations of 10 and 25 μM of substances 1, 4, 5, and 6.
Inhibition of the isolated human recombinant COX-1 and COX-2 isoenzymes by the platinum complexes (10 and 25 μM) was evaluated using an enzyme immunoassay (EIA) (COX Inhibitor Screening Assay, Cayman Chemicals, Ann Arbor, Mi, USA) following the manufacturer’s protocol. The incubation time of the compounds with the respective isoenzymes was exactly 2 min. The results are presented as the mean ± SD of three independent experiments with two replicates of each experiment. The untreated control was set at 0% inhibition of the COX activity.

Row | Compound | IC50 [1] [µM] | % Inhibition COX-2 (human recombinant COX-2; 10 μM) [%] | % Inhibition COX-2 (human recombinant COX-2; 25 μM) [%]
1 | C=C.C[C@H](N)C(=O)[O][Pt][Cl] [1a, (Ethylene,N-trans)(L-alaninato-N,O)chlorido(η^2-ethene)platinate(II)] | > 100 | 27.23 | 52.36 ± 4.02
2 | (Ethylene,N-trans)(L-alaninato-N,O)chlorido(η^2-(but-3-en-1-yl)-2-acetoxybenzoate)platinate(II) [compound 4] | 20.63 ± 0.11 | 20.04 | 60.50 ± 7.63

From PMC10683014, “Amino Acids as Chelating Ligands for Platinum: Enhanced Stability in an Aqueous Environment Promoted by Biocompatible Molecules” (Journal of Medicinal Chemistry, 2023)
